Key:
Experiment in all cases: Twenty-four hour biofilm growth (crystal violet)
Type in all cases: cell-based
[1] = system: A. actinomycetemcomitans
Protocol: (§1) The increase in biofilm formation of the tested bacteria in response to selected saccharides (D-turanose, D-lactitol, myo-inositol, and N-acetyl-D-mannosamine) was investigated by setting up biofilm growth assays in a nutritionally rich medium (brain heart infusion broth (BHI), Oxoid), over 24 hours. Late exponential growth phase liquid cultures were prepared by transferring the respective bacterium from blood agar plates to BHI and overnight incubation at 37° C. in an anaerobic atmosphere for A. viscosus, V. parvula, P. gingivalis, P. intermedia, T. forsythia, A. naeslundii, and C. sputigena, and in a 5% CO2 environment for S. salivarius, S. sanguinis, S. mitis, A. actinomycetemcomitans, S. mutans, and S. gordonii. Overnight cultures were transferred to BHI and adjusted to a concentration of 1×10^7 CFU/ml by measuring the optical density at 600 nm (OD600) (BioRad SmartSpec 3000). For each strain, 200 μl of the bacterial suspension was added to a 96-well plate containing 20 μl of the respective saccharides. Final concentrations of the saccharides were set to 5, 10, 20 and 25 μmol/ml. […] Additionally, for each bacterium tested, a background control, to correct for background staining, was added. This background control contained the bacterium tested and 0.03 weight % chlorhexidine, as an antiseptic. Plates were incubated as previously described. After 24 hrs the supernatant was removed from the wells of the plates. The wells were washed twice with 1×100 μL PBS (phosphate buffered saline), fixed for 20 minutes with 96% vol. ethanol (96% vol. solution in water) and the biofilm retained at the bottom of the wells was stained with 1 weight % crystal violet (1 weight % solution in water). The bound dye was dissolved with 5% vol. acetic acid (5% vol. solution in water). Quantification of the stained biofilm was performed by measuring the absorbance at 630 nm using a Multiskan Ascent microplate reader (Thermo Scientific).
(§2) The experiment was carried out on three different days (thus providing 3 biological replicas) and each day the experiment was carried out in quadruple (thus providing 4 technical replicas) for each combination of bacterium with saccharide and for each control. For each day and for each combination, the average (mean) of the values obtained (as detailed above) for the four technical replicas was calculated to provide a single value for each combination on each day. The values shown in Tables 7a, 7b, 8a, 8b, below, are the average (mean) of the three single values obtained for each combination of bacterium with saccharide.

[2] = system: A. naeslundii
Protocol: as §1, §2

[3] = system: A. viscosus
Protocol: as §1, §2

[4] = system: C. sputigena
Protocol: as §1, §2

[5] = system: P. gingivalis
Protocol: as §1, §2

[6] = system: P. intermedia
Protocol: as §1, §2

[7] = system: S. gordonii
Protocol: as §1, §2

[8] = system: S. mitis
Protocol: as §1, §2

[9] = system: S. mutans; conditions: S mutans
Protocol: as §1, §2

[10] = system: S. salivarius
Protocol: as §1, §2

[11] = system: S. sanguinis
Protocol: as §1, §2

[12] = system: T. forsythia
Protocol: as §1, §2

[13] = system: V. parvula
Protocol: as §1, §2

OC[C@H]1O[C@@](O)(CO)[C@@H](O[C@H]2O[C@H](CO)[C@@H](O)[C@H](O)[C@H]2O)[C@@H]1O [D-Turanose, α-D-glucopyranosyl-(1→3)-α-D-fructofuranose]
biofilm growth: OD 630 nm at 24 hrs divided by OD of control (control = 1) ([1]; 5 μmol/ml): 0.9734 | biofilm growth: OD 630 nm at 24 hrs divided by OD of control (control = 1) ([1]; 10 μmol/ml): 0.9794 | biofilm growth: OD 630 nm at 24 hrs divided by OD of control (control = 1) ([1]; 20 μmol/ml): 1.0297 | biofilm growth: OD 630 nm at 24 hrs divided by OD of control (control = 1) ([1]; 25 μmol/ml): 0.9417 | biofilm growth: OD 630 nm at 24 hrs divided by OD of control (control = 1) ([2]; 5 μmol/ml): 1.5849 | biofilm growth: OD 630 nm at 24 hrs divided by OD of control (control = 1) ([2]; 10 μmol/ml): 1.4372 | biofilm growth: OD 630 nm at 24 hrs divided by OD of control (control = 1) ([2]; 20 μmol/ml): 1.4348 | biofilm growth: OD 630 nm at 24 hrs divided by OD of control (control = 1) ([2]; 25 μmol/ml): 1.4411 | biofilm growth: OD 630 nm at 24 hrs divided by OD of control (control = 1) ([3]; 5 μmol/ml): 0.1692 | biofilm growth: OD 630 nm at 24 hrs divided by OD of control (control = 1) ([3]; 10 μmol/ml): 0.0920 | biofilm growth: OD 630 nm at 24 hrs divided by OD of control (control = 1) ([3]; 20 μmol/ml): 0.0289 | biofilm growth: OD 630 nm at 24 hrs divided by OD of control (control = 1) ([3]; 25 μmol/ml): 0.0366 | biofilm growth: OD 630 nm at 24 hrs divided by OD of control (control = 1) ([4]; 5 μmol/ml): 0.9429 | biofilm growth: OD 630 nm at 24 hrs divided by OD of control (control = 1) ([4]; 10 μmol/ml): 0.9387 | biofilm growth: OD 630 nm at 24 hrs divided by OD of control (control = 1) ([4]; 20 μmol/ml): 0.9130 | biofilm growth: OD 630 nm at 24 hrs divided by OD of control (control = 1) ([4]; 25 μmol/ml): 0.9464 | biofilm growth: OD 630 nm at 24 hrs divided by OD of control (control = 1) ([5]; 5 μmol/ml): 0.9121 | biofilm growth: OD 630 nm at 24 hrs divided by OD of control (control = 1) ([5]; 10 μmol/ml): 0.8700 | biofilm growth: OD 630 nm at 24 hrs divided by OD of control (control = 1) ([5]; 20 μmol/ml): 0.9602 | biofilm growth: OD 630 nm at 24 hrs divided by OD of control (control = 1) ([5]; 25 μmol/ml): 0.9613 | biofilm growth: OD 630 nm at 24 hrs divided by OD of control (control = 1) ([6]; 5 μmol/ml): 2.0059 | biofilm growth: OD 630 nm at 24 hrs divided by OD of control (control = 1) ([6]; 10 μmol/ml): 1.8143 | biofilm growth: OD 630 nm at 24 hrs divided by OD of control (control = 1) ([6]; 20 μmol/ml): 1.5017 | biofilm growth: OD 630 nm at 24 hrs divided by OD of control (control = 1) ([6]; 25 μmol/ml): 1.1725 | biofilm growth: OD 630 nm at 24 hrs divided by OD of control (control = 1) ([7]; 5 μmol/ml): 1.0874 | biofilm growth: OD 630 nm at 24 hrs divided by OD of control (control = 1) ([7]; 10 μmol/ml): 1.1335 | biofilm growth: OD 630 nm at 24 hrs divided by OD of control (control = 1) ([7]; 20 μmol/ml): 1.1002 | biofilm growth: OD 630 nm at 24 hrs divided by OD of control (control = 1) ([7]; 25 μmol/ml): 1.2536 | biofilm growth: OD 630 nm at 24 hrs divided by OD of control (control = 1) ([8]; 5 μmol/ml): 1.9433 | biofilm growth: OD 630 nm at 24 hrs divided by OD of control (control = 1) ([8]; 10 μmol/ml): 1.5717 | biofilm growth: OD 630 nm at 24 hrs divided by OD of control (control = 1) ([8]; 20 μmol/ml): 0.5236 | biofilm growth: OD 630 nm at 24 hrs divided by OD of control (control = 1) ([8]; 25 μmol/ml): 0.3988 | biofilm growth: OD 630 nm at 24 hrs divided by OD of control (control = 1) ([9]; 5 μmol/ml): 1.0356 | biofilm growth: OD 630 nm at 24 hrs divided by OD of control (control = 1) ([9]; 10 μmol/ml): 1.1168 | biofilm growth: OD 630 nm at 24 hrs divided by OD of control (control = 1) ([9]; 20 μmol/ml): 1.1403 | biofilm growth: OD 630 nm at 24 hrs divided by OD of control (control = 1) ([9]; 25 μmol/ml): 1.1529 | biofilm growth: OD 630 nm at 24 hrs divided by OD of control (control = 1) ([10]; 5 μmol/ml): 0.9812 | biofilm growth: OD 630 nm at 24 hrs divided by OD of control (control = 1) ([10]; 10 μmol/ml): 0.9793 | biofilm growth: OD 630 nm at 24 hrs divided by OD of control (control = 1) ([10]; 20 μmol/ml): 0.8441 | biofilm growth: OD 630 nm at 24 hrs divided by OD of control (control = 1) ([10]; 25 μmol/ml): 0.8731 | biofilm growth: OD 630 nm at 24 hrs divided by OD of control (control = 1) ([11]; 5 μmol/ml): 2.0761 | biofilm growth: OD 630 nm at 24 hrs divided by OD of control (control = 1) ([11]; 10 μmol/ml): 2.7352 | biofilm growth: OD 630 nm at 24 hrs divided by OD of control (control = 1) ([11]; 20 μmol/ml): 1.6356 | biofilm growth: OD 630 nm at 24 hrs divided by OD of control (control = 1) ([11]; 25 μmol/ml): 1.9363 | biofilm growth: OD 630 nm at 24 hrs divided by OD of control (control = 1) ([12]; 5 μmol/ml): 0.8918 | biofilm growth: OD 630 nm at 24 hrs divided by OD of control (control = 1) ([12]; 10 μmol/ml): 0.9297 | biofilm growth: OD 630 nm at 24 hrs divided by OD of control (control = 1) ([12]; 20 μmol/ml): 0.7855 | biofilm growth: OD 630 nm at 24 hrs divided by OD of control (control = 1) ([12]; 25 μmol/ml): 0.8404 | biofilm growth: OD 630 nm at 24 hrs divided by OD of control (control = 1) ([13]; 5 μmol/ml): 1.2298 | biofilm growth: OD 630 nm at 24 hrs divided by OD of control (control = 1) ([13]; 10 μmol/ml): 1.3941 | biofilm growth: OD 630 nm at 24 hrs divided by OD of control (control = 1) ([13]; 20 μmol/ml): 1.4942 | biofilm growth: OD 630 nm at 24 hrs divided by OD of control (control = 1) ([13]; 25 μmol/ml): 1.3055
